Reference: US11395857B2, “Radiolabeled melanocortin 1 receptor-specific alpha-melanocyte-stimulating hormone analogues for imaging or therapy” (PROVINCIAL HEALTH SERVICES AUTHORITY, priority 2018, dated 2022)
Like-named read-outs stand apart in the source and are kept apart here.

Tests used:
[1] = Biodistribution of 177Lu-labeled αMSH analogues in mice bearing B16F10 mouse melanoma; type: in vivo, C57BL/6J mice; settings: mouse, iv, total radioactivity, C57BL/6J mice, B16F10 melanoma
Protocol: (§1) The B16-F10 mouse melanoma cells were cultured and inoculated in mice as described in Example 1.
(§2) For biodistribution studies, approximately 1-2 MBq of ^177Lu-labeled αMSH analogues via tail vein under anesthesia. At 1, 4, 24, and 120 h p.i., the mice were euthanized by CO2 inhalation. Organs/tissues were harvested and the radioactivity was measured as described in Example 1.

[2] = test system: B16F10 mouse melanoma; assay: as above; type: in vivo, C57BL/6J mice; settings: C57BL/6J mice, B16F10 melanoma
Protocol: as §1, §2

- tissue uptake at 1 h ([1]; male, seminal glands, 1 h p.i., read-out: Biodistribution, Seminal glands): 0.48 ± 0.13 %ID/g
- tissue uptake at 4 h ([1]; male, seminal glands, 4 h p.i., read-out: Biodistribution, Seminal glands): 0.32 ± 0.15 %ID/g
- tissue uptake at 24 h ([1]; male, seminal glands, 24 h p.i., read-out: Biodistribution, Seminal glands): 0.1 ± 0.04 %ID/g
- tissue uptake at 120 h ([1]; male, seminal glands, 120 h p.i., read-out: Biodistribution, Seminal glands): 0.04 ± 0.02 %ID/g
- tissue uptake at 1 h ([1]; male, testes, 1 h p.i., read-out: Biodistribution, Testes): 1.3 ± 0.4 %ID/g
- tissue uptake at 4 h ([1]; male, testes, 4 h p.i., read-out: Biodistribution, Testes): 0.75 ± 0.26 %ID/g
- tissue uptake at 24 h ([1]; male, testes, 24 h p.i., read-out: Biodistribution, Testes): 0.32 ± 0.17 %ID/g
- tissue uptake at 120 h ([1]; male, testes, 120 h p.i., read-out: Biodistribution, Testes): 0.2 ± 0.11 %ID/g
- tissue uptake at 1 h ([1]; adrenal glands, 1 h p.i., read-out: Biodistribution, Adrenal glands): 2.62 ± 1.48 %ID/g
- tissue uptake at 4 h ([1]; adrenal glands, 4 h p.i., read-out: Biodistribution, Adrenal glands): 1.31 ± 0.56 %ID/g
- tissue uptake at 24 h ([1]; adrenal glands, 24 h p.i., read-out: Biodistribution, Adrenal glands): 0.41 ± 0.35 %ID/g
- tissue uptake at 120 h ([1]; adrenal glands, 120 h p.i., read-out: Biodistribution, Adrenal glands): 0.33 ± 0.23 %ID/g
- tissue uptake at 1 h ([1]; blood, 1 h p.i., read-out: Biodistribution, Blood): 8.32 ± 2.74 %ID/g
- tissue uptake at 4 h ([1]; blood, 4 h p.i., read-out: Biodistribution, Blood): 2.82 ± 1.17 %ID/g
- tissue uptake at 24 h ([1]; blood, 24 h p.i., read-out: Biodistribution, Blood): 0.33 ± 0.57 %ID/g
- tissue uptake at 120 h ([1]; blood, 120 h p.i., read-out: Biodistribution, Blood): 0.03 ± 0.04 %ID/g
- tissue uptake at 1 h ([1]; bone, 1 h p.i., read-out: Biodistribution, Bone): 0.84 ± 0.19 %ID/g
- tissue uptake at 4 h ([1]; bone, 4 h p.i., read-out: Biodistribution, Bone): 0.51 ± 0.11 %ID/g
- tissue uptake at 24 h ([1]; bone, 24 h p.i., read-out: Biodistribution, Bone): 0.31 ± 0.08 %ID/g
- tissue uptake at 120 h ([1]; bone, 120 h p.i., read-out: Biodistribution, Bone): 0.17 ± 0.07 %ID/g
- tissue uptake at 1 h ([1]; brain, 1 h p.i., read-out: Biodistribution, Brain): 0.13 ± 0.03 %ID/g
- tissue uptake at 4 h ([1]; brain, 4 h p.i., read-out: Biodistribution, Brain): 0.06 ± 0.02 %ID/g
- tissue uptake at 24 h ([1]; brain, 24 h p.i., read-out: Biodistribution, Brain): 0.01 ± 0.02 %ID/g
- tissue uptake at 120 h ([1]; brain, 120 h p.i., read-out: Biodistribution, Brain): 0.01 ± 0.01 %ID/g
- tissue uptake at 1 h ([1]; fat, 1 h p.i., read-out: Biodistribution, Fat): 0.61 ± 0.23 %ID/g
- tissue uptake at 4 h ([1]; fat, 4 h p.i., read-out: Biodistribution, Fat): 0.39 ± 0.12 %ID/g
- tissue uptake at 24 h ([1]; fat, 24 h p.i., read-out: Biodistribution, Fat): 0.1 ± 0.13 %ID/g
- tissue uptake at 120 h ([1]; fat, 120 h p.i., read-out: Biodistribution, Fat): 0.05 ± 0.05 %ID/g
- tissue uptake at 1 h ([1]; heart, 1 h p.i., read-out: Biodistribution, Heart): 2.03 ± 0.68 %ID/g
- tissue uptake at 4 h ([1]; heart, 4 h p.i., read-out: Biodistribution, Heart): 0.8 ± 0.32 %ID/g
- tissue uptake at 24 h ([1]; heart, 24 h p.i., read-out: Biodistribution, Heart): 0.18 ± 0.17 %ID/g
- tissue uptake at 120 h ([1]; heart, 120 h p.i., read-out: Biodistribution, Heart): 0.09 ± 0.04 %ID/g
- tissue uptake at 1 h ([1]; intestine, 1 h p.i., read-out: Biodistribution, Intestine): 1.34 ± 0.28 %ID/g
- tissue uptake at 4 h ([1]; intestine, 4 h p.i., read-out: Biodistribution, Intestine): 2.91 ± 4.94 %ID/g
- tissue uptake at 24 h ([1]; intestine, 24 h p.i., read-out: Biodistribution, Intestine): 0.43 ± 0.32 %ID/g
- tissue uptake at 120 h ([1]; intestine, 120 h p.i., read-out: Biodistribution, Intestine): 0.08 ± 0.07 %ID/g
- tissue uptake at 1 h ([1]; kidneys, 1 h p.i., read-out: Biodistribution, Kidneys): 11.7 ± 5.52 %ID/g
- tissue uptake at 4 h ([1]; kidneys, 4 h p.i., read-out: Biodistribution, Kidneys): 11.6 ± 5.03 %ID/g
- tissue uptake at 24 h ([1]; kidneys, 24 h p.i., read-out: Biodistribution, Kidneys): 8.63 ± 6.4 %ID/g
- tissue uptake at 120 h ([1]; kidneys, 120 h p.i., read-out: Biodistribution, Kidneys): 1.98 ± 0.72 %ID/g
- tissue uptake at 1 h ([1]; liver, 1 h p.i., read-out: Biodistribution, Liver): 3.45 ± 0.31 %ID/g
- tissue uptake at 4 h ([1]; liver, 4 h p.i., read-out: Biodistribution, Liver): 3.83 ± 0.28 %ID/g
- tissue uptake at 24 h ([1]; liver, 24 h p.i., read-out: Biodistribution, Liver): 2.41 ± 0.34 %ID/g
- tissue uptake at 120 h ([1]; liver, 120 h p.i., read-out: Biodistribution, Liver): 0.9 ± 0.12 %ID/g
- tissue uptake at 1 h ([1]; lungs, 1 h p.i., read-out: Biodistribution, Lungs): 5.11 ± 2.81 %ID/g
- tissue uptake at 4 h ([1]; lungs, 4 h p.i., read-out: Biodistribution, Lungs): 2.46 ± 0.54 %ID/g
- tissue uptake at 24 h ([1]; lungs, 24 h p.i., read-out: Biodistribution, Lungs): 0.42 ± 0.34 %ID/g
- tissue uptake at 120 h ([1]; lungs, 120 h p.i., read-out: Biodistribution, Lungs): 0.54 ± 0.87 %ID/g
- tissue uptake at 1 h ([1]; muscle, 1 h p.i., read-out: Biodistribution, Muscle): 0.79 ± 0.22 %ID/g
- tissue uptake at 4 h ([1]; muscle, 4 h p.i., read-out: Biodistribution, Muscle): 0.39 ± 0.1 %ID/g
- tissue uptake at 24 h ([1]; muscle, 24 h p.i., read-out: Biodistribution, Muscle): 0.06 ± 0.05 %ID/g
- tissue uptake at 120 h ([1]; muscle, 120 h p.i., read-out: Biodistribution, Muscle): 0.03 ± 0.02 %ID/g
- tissue uptake at 1 h ([1]; pancreas, 1 h p.i., read-out: Biodistribution, Pancreas): 1.14 ± 0.32 %ID/g
- tissue uptake at 4 h ([1]; pancreas, 4 h p.i., read-out: Biodistribution, Pancreas): 0.52 ± 0.27 %ID/g
- tissue uptake at 24 h ([1]; pancreas, 24 h p.i., read-out: Biodistribution, Pancreas): 0.17 ± 0.19 %ID/g
- tissue uptake at 120 h ([1]; pancreas, 120 h p.i., read-out: Biodistribution, Pancreas): 0.09 ± 0.05 %ID/g
- tissue uptake at 1 h ([1]; spleen, 1 h p.i., read-out: Biodistribution, Spleen): 2.1 ± 1.03 %ID/g
- tissue uptake at 4 h ([1]; spleen, 4 h p.i., read-out: Biodistribution, Spleen): 1.46 ± 0.67 %ID/g
- tissue uptake at 24 h ([1]; spleen, 24 h p.i., read-out: Biodistribution, Spleen): 1.05 ± 0.45 %ID/g
- tissue uptake at 120 h ([1]; spleen, 120 h p.i., read-out: Biodistribution, Spleen): 0.65 ± 0.34 %ID/g
- tissue uptake at 1 h ([1]; stomach, 1 h p.i., read-out: Biodistribution, Stomach): 0.89 ± 0.5 %ID/g
- tissue uptake at 4 h ([1]; stomach, 4 h p.i., read-out: Biodistribution, Stomach): 1.65 ± 2.22 %ID/g
- tissue uptake at 24 h ([1]; stomach, 24 h p.i., read-out: Biodistribution, Stomach): 1.17 ± 0.77 %ID/g
- tissue uptake at 120 h ([1]; stomach, 120 h p.i., read-out: Biodistribution, Stomach): 0.19 ± 0.21 %ID/g
- tissue uptake at 1 h ([1]; thyroid, 1 h p.i., read-out: Biodistribution, Thyroid): 3.41 ± 0.51 %ID/g
- tissue uptake at 4 h ([1]; thyroid, 4 h p.i., read-out: Biodistribution, Thyroid): 3.86 ± 0.39 %ID/g
- tissue uptake at 24 h ([1]; thyroid, 24 h p.i., read-out: Biodistribution, Thyroid): 4.03 ± 1.33 %ID/g
- tissue uptake at 120 h ([1]; thyroid, 120 h p.i., read-out: Biodistribution, Thyroid): 0.86 ± 0.31 %ID/g
- tissue to tissue ratio at 1 h ([1]; tumour/blood, 1 h p.i., read-out: Tumour/blood): 1.82 ± 0.82
- tissue to tissue ratio at 4 h ([1]; tumour/blood, 4 h p.i., read-out: Tumour/blood): 8.59 ± 4.19
- tissue to tissue ratio at 24 h ([1]; tumour/blood, 24 h p.i., read-out: Tumour/blood): 87.6 ± 47.8
- tissue to tissue ratio at 120 h ([1]; tumour/blood, 120 h p.i., read-out: Tumour/blood): 52.9 ± 41.3
- tissue to tissue ratio at 1 h ([1]; tumour/kidney, 1 h p.i., read-out: Tumour/kidney): 1.41 ± 0.71
- tissue to tissue ratio at 4 h ([1]; tumour/kidney, 4 h p.i., read-out: Tumour/kidney): 2.05 ± 0.86
- tissue to tissue ratio at 24 h ([1]; tumour/kidney, 24 h p.i., read-out: Tumour/kidney): 1.14 ± 0.5
- tissue to tissue ratio at 120 h ([1]; tumour/kidney, 120 h p.i., read-out: Tumour/kidney): 0.42 ± 0.18
- tissue to tissue ratio at 1 h ([1]; tumour/muscle, 1 h p.i., read-out: Tumour/muscle): 18.7 ± 8.13
- tissue to tissue ratio at 4 h ([1]; tumour/muscle, 4 h p.i., read-out: Tumour/muscle): 57.7 ± 22.4
- tissue to tissue ratio at 24 h ([1]; tumour/muscle, 24 h p.i., read-out: Tumour/muscle): 167 ± 88.7
- tissue to tissue ratio at 120 h ([1]; tumour/muscle, 120 h p.i., read-out: Tumour/muscle): 38.9 ± 24
- excreta dose per gram or mL at 1 h ([1]; urine, 1 h p.i.): 87.9 ± 48.2 %ID/g
- excreta dose per gram or mL at 4 h ([1]; urine, 4 h p.i.): 113 ± 29.4 %ID/g
- excreta dose per gram or mL at 24 h ([1]; urine, 24 h p.i.): 6.11 ± 1.66 %ID/g
- excreta dose per gram or mL at 120 h ([1]; urine, 120 h p.i.): 1.21 ± 0.21 %ID/g
- Biodistribution, B16F10 tumour ([2]; 1 h p.i.): 13.3 ± 3.34 % ID/g
- Biodistribution, B16F10 tumour ([2]; 4 h p.i.): 20.8 ± 5.37 % ID/g
- Biodistribution, B16F10 tumour ([2]; 24 h p.i.): 7.59 ± 1.70 % ID/g
- Biodistribution, B16F10 tumour ([2]; 120 h p.i.): 0.79 ± 0.39 % ID/g
SMILES: CCCC[C@H](NC(=O)CN1CCC(NC(=O)[C@H](CCCCNC(=O)CN2CCN(CC(=O)O)CCN(CC(=O)O)CCN(CC(=O)O)CC2)NC(=O)[C@H](CCC(=O)O)NC(=O)CCCc2ccc(I)cc2)CC1)C(=O)N[C@H]1CC(=O)NCCCC[C@@H](C(N)=O)NC(=O)[C@H](Cc2c[nH]c3ccccc23)NC(=O)[C@H](CCCNC(=N)N)NC(=O)[C@@H](Cc2ccccc2)NC(=O)[C@H](Cc2c[nH]cn2)NC1=O [^177Lu-labeled CCZ01082, metal not drawn]
